Assays:
HepG2 cells [1] = experiment: calcium influx (Fluo-4) in HepG2 cells; format: cell-based, human
Method: Cells were grown on a coverslip in a culture medium for 24 hours, maintained in an RPMI 1640 serum-free medium for 1 hour, and pretreated with a calcium indicator Fluo-4 (5 μM) for 30 min. After pretreatment, the coverslip was mounted on a slide glass. Changes in an intracellular calcium concentration were observed using a fluorescence microscope (Carl Zeiss) for 30 sec, and cells were treated with a candidate compound (e.g. pyran-1,2-naphthoquinone) simultaneously with consecutive imaging of calcium changes using a fluorescence microscope (Carl Zeiss) for 2 sec. […] Changes in the intracellular calcium concentration were observed using a fluorescence microscope (Carl Zeiss) for 30 sec, and cells were treated with pyre-1,2-naphthoquinone (10 μM), followed by continuous shooting of calcium changes using a fluorescence microscope for 2 sec. Using an LSM Image Browser program (Carl Zeiss), 300 images taken for 10 min every 2 seconds were sorted and ordered in a time sequence and plotted on a graph.
For determination of the inner mitochondrial membrane potential (ΔΨm), 20 nM of TMRE (tetramethylrhodamine ethyl ester) as a fluorescent indicator was continuously applied to be loaded on cells. In order to monitor mitochondrial Ca^2+, cells on glass coverslips were loaded with 10 μM Rhod-2 AM via cold loading/warm incubation. In order to monitor cytosolic Ca^2+, cells were co-loaded with 10 μM Fluo-4 AM at 37′C for 30 min. […] Images for TMRE (red fluorescence), Rhod-2 (red fluorescence) and Fluo-4 (green fluorescence) were obtained using an inverted Zeiss 510META laser-scanning confocal microscope equipped with ×63 numerical aperture, 1.4 oil-immersion planapochromat lens. Green fluorescence and red fluorescence were illuminated with light of 488 nm and 543 nm. […]
Cells were cultured for 24 hours and then pre-treated with Fluo-4 for 30 min. Cells immobilized on a coverslip were transferred to a slide glass and treated with pyrano-1,2-naphthoquinone (10 μM), and at the same time images were taken every 2 seconds for 10 min using a fluorescence microscope.

cardiomyocytes [2] = experiment: mitochondrial membrane potential (TMRE fluorescence) in cardiomyocytes; format: cell-based
Method: For determination of the inner mitochondrial membrane potential (ΔΨm), 20 nM of TMRE (tetramethylrhodamine ethyl ester) as a fluorescent indicator was continuously applied to be loaded on cells. In order to monitor mitochondrial Ca^2+, cells on glass coverslips were loaded with 10 μM Rhod-2 AM via cold loading/warm incubation. In order to monitor cytosolic Ca^2+, cells were co-loaded with 10 μM Fluo-4 AM at 37′C for 30 min. The cells were washed twice with a KB solution, and mounted in a perfusion chamber. Fluorescent imaging was taken using a confocal laser scanning microscope (LSM-510 META, Carl Zeiss) at a magnification of ×200 and ×400, in conjunction with appropriate laser lines and a filter set. Image analysis was carried out using LSM-510 META software (Zeiss). Images for TMRE (red fluorescence), Rhod-2 (red fluorescence) and Fluo-4 (green fluorescence) were obtained using an inverted Zeiss 510META laser-scanning confocal microscope equipped with ×63 numerical aperture, 1.4 oil-immersion planapochromat lens. Green fluorescence and red fluorescence were illuminated with light of 488 nm and 543 nm. Incident light was passed through a 545 nm dichroic mirror and observed via a 500 to 530 nm band-pass (green) filter and a 560 nm long-pass (red) barrier filter.
However, such effects were not observed in HEK293 cells. […]

HepG2 cells [3] = experiment: mitochondrial oxygen consumption (Clark-type oxygen electrode) in HepG2 cells; format: cell-based, human
Excerpt: (§1) FIG. 22 is a graph showing monitoring results of mitochondrial oxygen consumption using a Clark-type oxygen electrode;

cardiomyocytes [4] = experiment: mitochondrial oxygen consumption in cardiomyocytes; format: cell-based
Excerpt: as §1

HEK293 cells = experiment: mitochondrial oxygen consumption in HEK293 cells; format: cell-based, human
Excerpt: as §1

AMPK, ACC = experiment: AMPK kinase / ACC activity in HepG2 cells; format: cell-based, human
[5] = liver and muscle histology (H&E, EM) in ob/ob mice; format: in vivo, mouse; conditions: 56 days
Method: The removed tissues were cut into a proper size, fixed in 10% formalin, washed with water, and embedded in paraffin to prepare blocks, according to a conventional method. The thus-prepared blocks were sectioned into a 4 μm thickness and subjected to hematoxylin and eosin (H&E) staining for observation of general changes.
For observation of cellular microstructures, the removed tissues were sliced into a size of 1 mm^3, pre-fixed in 2.5% glutaraldehyde (0.1M PBS, pH 7.4, 4° C.) for 2 to 4 hours, washed, and post-fixed in a 1% osmium tetroxide solution for 2 hours. Then, according to a conventional method, the tissues were dehydrated with serial concentrations of ethanol and the solvent was replaced with propylene oxide. The tissues were embedded in an epoxy resin mixture, and the embedded tissues were subjected to thermal polymerization to prepare blocks. The thus-prepared blocks were sectioned into a thickness of 0.5 to 1 μm using a ultramicrotome and stained with toludine blue. Observation sites were selected under a light microscope and the tissues were ultrasectioned to a thickness of 60 to 70 nm. The ultrasectioned specimens were subjected to dual staining of uranyl acetate and lead citrate and were observed under a transmission electron microscope (H-600, Hitachi, Japan) at an accelerating voltage of 75 kV.
In order to examine fat accumulation in the liver tissue, animals were laparotomized 56 days after administration of pyran-1,2-naphthoquinone, and H&E staining and EM examination were performed on the liver tissue.

## CC1(C)CCC2=C(O1)c1ccccc1C(=O)C2=O [βL, 2,2-Dimethyl-3,4-dihydro-2H-benzo[h]chromene-5,6-dione]
HepG2 cells [1]; Fluo4 and Rhod-2-AM fluorescence, cells not given
  cytosolic Ca2+ concentration ([Ca2+]c) and mitochondrial Ca2+ concentration ([Ca2+]m): increases
HepG2 cells [1]; HepG2, 10 μM
  time of calcium peak after treatment: about 10 sec
Cardiomyocytes [2]
  decrease of TMRE fluorescence: about 20%
HepG2 cells [3]
  mitochondrial oxygen consumption: increased
Cardiomyocytes [4]
  mitochondrial oxygen consumption: increased
HEK293 cells
  increased oxygen consumption: not observed
AMPK, ACC
  ACC activation: decreases ACC activation
AMPK, ACC; 10 μM, 30 min
  activity of AMPK: increased
[5]
  EM examination on liver tissues: remarkably decreased fat vacuoles and glycogen stores
  EM examination on muscle tissue of animal limbs: recovery of normal mitochondrial morphology
  H&E staining on liver tissue: almost all fat vacuoles have disappeared

Source: patent US20140106387A1, “METHOD FOR CONTROLLING NAD(P)/NAD(P)H RATIO BY OXIDOREDUCTASE” (MD BIOALPHA CO., LTD., priority 2006, published 2014)
